According to patent US7858349B2, “Anti-cancer compounds” (The Regents of the University of Colorado, priority 1999, dated 2010):
pIC50: −log10 of the molar value. Like-named read-outs stand apart in the source and are kept apart here.

Assays:
[1] = tested on: SCLC strain SHP-77; assay: MTT assay for cell survival, SCLC SHP-77 in vitro; assay type: cell-based, human; settings: ED50 for killing of SCLC strain SHP-77 in vitro, 4 days, 0 = no detectable activity
[2] = tested on: PC3 PC cells; assay: Inhibition of PC3 tumor growth in vivo in nude mice; set-up: species or system athymic nude mice; key to PC3 In vivo % inhib.: an IC50 value of “0” represents no detectable anti-cancer activity for a drug in a given cell line; “Stim.” indicates the observation of a stimulatory activity on the growth of the cancer cell line; settings: percent inhibition of tumor growth in nude mice; prostate cancer; i.p. 5 mg/kg/every second day or 10 mg/kg/every fourth day
Description: Compounds having high in vitro cytotoxic activity were tested against implanted tumors in vivo. Athymic nude mice were implanted subcutaneously with suspensions (2 million SHP-77 SCLC cells, 1 million A549 NSCLC cells or 1.5 million PC3 PC cells) in Matrigel suspension. On the eighth day after tumor implantation groups of 5 mice bearing implants were injected intraperitoneally with the compounds being tested at 5 mg/kg/every second day or at 10 mg/kg/every fourth day; control animals were injected with an equal volume of isotonic saline. Less soluble compounds were initially dissolved in dimethyl sulfoxide (DMSO) and diluted with medium. In those cases the control injections contained the same concentration of DMSO. Tumor size was measured with a caliper three times per week. Tumor volume was calculated by the formula: Volume(cc)=3.14×(length)×(width)^2/6 At autopsy tumors were removed and weighed. Tumor inhibition was calculated on both weight and measurement basis. In each Table, an IC50 value of “0” represents no detectable anti-cancer activity for a drug in a given cell line and “Stim.” indicates the observation of a stimulatory activity on the growth of the cancer cell line.

Row | Compound | pIC50 ([1]; read-out: SCLC SHP-77 IC50) | PC3 In vivo % inhib. [2] | pIC50 ([1]; read-out: SHP-77 In vitro IC50)
1 | CC1(C)CC(NC(=O)C(Cc2ccc(OCc3c(Cl)cccc3Cl)cc2)NC(=O)C=Cc2ccc(B(O)O)cc2)CC(C)(C)N1 (stereo not drawn) [Analog M-1460, Bcin-OC2Y-Atmp] | 4.64 | 38% | –
2 | O=C(NC(Cc1ccc2ccccc2c1)C(=O)N1CCC(N2CCCCC2)CC1)C(c1ccc(Cl)cc1)c1ccc(Cl)cc1 (stereo not drawn) [Analog M-1246, Bcpa-Nal-Pipp] | – | Stim | 5.44
3 | CC1(C)CC(NC(=O)[C@H](Cc2ccc(OCc3c(Cl)cccc3Cl)cc2)NC(=O)C(C#N)=Cc2ccc(O)cc2)CC(C)(C)N1 [Analog M-1638, Chc-OC2Y-Atmp] | 4.74 | 39% | –
4 | CC1(C)CC(NC(=O)C(Cc2ccc([N+](=O)[O-])cc2)NC(=O)C=Cc2c(F)c(F)c(F)c(F)c2F)CC(C)(C)N1 (stereo not drawn) [Analog M-1112, F5c-PNF-Atmp] | – | 24% | 4.52
5 | O=C(C=Cc1c(F)c(F)c(F)c(F)c1F)NC(Cc1ccc(OCc2c(Cl)cccc2Cl)cc1)C(=O)NC1CN2CCC1CC2 [Analog M-1544, F5c-OC2Y-(R)-Aqu] | 5.22 | 28% | –
6 | Cc1ccc(CSC(C)(C)C(NC(=O)CCCc2c[nH]c3ccccc23)C(=O)NC2CC(C)(C)NC(C)(C)C2)cc1 (stereo not drawn) [Analog M-1474, 3Ibu-Pen(Mbzl)-Atmp] | 5.11 | Stim. | –
7 | CC1(C)CC(NC(=O)[C@H](Cc2ccc(OCc3c(Cl)cccc3Cl)cc2)NC(=O)CC2CC3CCC2C3)CC(C)(C)N1 (stereo partly drawn) [Analog M-1650, Nba-OC2Y-Atmp] | 5.37 | 40% | –
8 | CC1(C)CC(NC(=O)C(NC(=O)C=Cc2c(F)c(F)c(F)c(F)c2F)C2Cc3ccccc3C2)CC(C)(C)N1 (stereo not drawn) [Analog M-1052, F5c-Igl-Atmp] | – | 27% | 5.14
9 | CC(C=CC1=C(C)CCCC1(C)C)=CC=CC(C)=CC(=O)NC(Cc1ccc(OCc2c(Cl)cccc2Cl)cc1)C(=O)NC1CC(C)(C)NC(C)(C)C1 (stereo not drawn) [Analog M-1446, Ret-OC2Y-Atmp] | 5.17 | 60% | –
10 | COc1ccc2c(c1)c(CC(=O)N[C@@H](Cc1ccc(OCc3c(Cl)cccc3Cl)cc1)C(=O)NC1CCN(Cc3ccccc3)CC1)c(C)n2C(=O)c1ccc(Cl)cc1 [Analog M-1558, Indo-OC2Y-Abzp] | 5.02 | Stim. | –
11 | CC1(C)CC(NC(=O)C(Cc2ccc(C#N)cc2)NC(=O)CCCCC2SCC3NC(=O)NC32)CC(C)(C)N1 (stereo not drawn) [Analog M-1466, Biot-PCNF-Atmp] | < 4.22 | 29% | –
12 | CC1(C)CC(NC(=O)[C@H](Cc2ccc(C#N)cc2)NC(=O)C23CC4CC(CC(C4)C2)C3)CC(C)(C)N1 [Analog M-1496, Aca-PCNF-Atmp] | < 4.22 | 2% | –
13 | O=C(C=Cc1c(F)c(F)c(F)c(F)c1F)NC(Cc1ccc(OCc2c(Cl)cccc2Cl)cc1)C(=O)NC1CCN(Cc2ccccc2)CC1 (stereo not drawn) [Analog M-1552, F5c-OC2Y-Abzp] | 4.89 | 52% | –
14 | CC1(C)CC(NC(=O)C(Cc2ccc(OCc3c(Cl)cccc3Cl)cc2)NC(=O)C=Cc2cccs2)CC(C)(C)N1 (stereo not drawn) [Analog M-1418, Thia-OC2Y-Atmp] | 5.07 | 9% | –
15 | CCCCC/C=C\C/C=C\C/C=C\C/C=C\CCCC(=O)NC(Cc1ccc(OCc2c(Cl)cccc2Cl)cc1)C(=O)NC1CC(C)(C)NC(C)(C)C1 (stereo not drawn) [Analog M-1442, Arac-OC2Y-Atmp] | 5.19 | 31% | –
16 | CC1(C)CC(NC(=O)[C@H](Cc2ccc(OC(=O)OCc3ccccc3Br)cc2)NC(=O)/C=C/c2c(F)c(F)c(F)c(F)c2F)CC(C)(C)N1 [Analog M-1608, F5c-ObrZY-Atmp] | 5.00 | 29% | –
17 | Cc1ccc(CSC(C)(C)C(NC(=O)CCCc2ccc(N(CCCl)CCCl)cc2)C(=O)NC2CC(C)(C)NC(C)(C)C2)cc1 (stereo not drawn) [Analog M-1498, Chl-Pen(Mbzl)-Atmp] | 5.46 | 20% | –
18 | CC1(C)CC(NC(=O)C(Cc2ccc(OCc3c(Cl)cccc3Cl)cc2)NC(=O)C2CC(=O)NC(=O)N2)CC(C)(C)N1 (stereo not drawn) [Analog M-1462, Hor-OC2Y-Atmp] | < 4.22 | 7% | –

Row | Compound | pIC50 ([1]; read-out: SCLC SHP-77 IC50) | PC3 In vivo % inhib. [2] | pIC50 ([1]; read-out: SHP-77 In vitro IC50)
19 | COc1ccc2c(c1)c(CC(=O)N[C@@H](Cc1ccc(C#N)cc1)C(=O)NC1CC(C)(C)NC(C)(C)C1)c(C)n2C(=O)c1ccc(Cl)cc1 [Analog M-1520, Indo-PCNF-Atmp] | 4.89 | Stim. | –
20 | COc1ccc2c(c1)c(CC(=O)N[C@@H](Cc1ccc(OCc3c(Cl)cccc3Cl)cc1)C(=O)N1CCN(c3ncccn3)CC1)c(C)n2C(=O)c1ccc(Cl)cc1 [Analog M-1562, Indo-OC2Y-Pmpz] | < 4.22 | 2% | –
21 | O=C([C@H](Cc1ccc(OCc2c(Cl)cccc2Cl)cc1)NCc1c(F)c(F)c(F)c(F)c1F)N1CCN(C/C=C/c2ccccc2)CC1 [Analog M-1634, F5b-OC2Y-tCip] | < 4.22 | Stim. | –
22 | CC1(C)CC(NC(=O)C(Cc2ccc(OCc3c(Cl)cccc3Cl)cc2)NC(=O)c2ccccc2O)CC(C)(C)N1 (stereo not drawn) [Analog M-1450, 2Hyb-OC2Y-Atmp] | 4.89 | Stim. | –
23 | CC1(C)CC(NC(=O)C(Cc2ccc(OCc3c(Cl)cccc3Cl)cc2)NC(=O)C(C2CCCCC2)C2CCCCC2)CC(C)(C)N1 (stereo not drawn) [Analog M-1116, Dca-OC2Y-Atmp] | – | 19% | 5.12
24 | CN1CCN(CCCNC(=O)[C@H](Cc2ccc(OCc3c(Cl)cccc3Cl)cc2)NC(=O)/C=C/c2c(F)c(F)c(F)c(F)c2F)CC1 [Analog M-1582, F5c-OC2Y-Amp] | 5.17 | 60% | –
25 | CC1(C)CC(NC(=O)C(Cc2ccc(OCc3c(Cl)cccc3Cl)cc2)NC(=O)C=Cc2ccc(N)cc2)CC(C)(C)N1 (stereo not drawn) [Analog M-1648, Pac-OC2Y-Atmp] | 5.12 | 28% | –
26 | CC1(C)CC(NC(=O)C(Cc2ccc(OCc3c(Cl)cccc3Cl)cc2)NC(=O)c2c(F)c(F)c(F)c(F)c2F)CC(C)(C)N1 (stereo not drawn) [Analog M-1360, F5bz-OC2Y-Atmp] | 5.39 | Stim. | –
27 | COc1ccc2c(c1)c(CC(=O)N[C@@H](Cc1ccc(OCc3c(Cl)cccc3Cl)cc1)C(=O)N1CCN(C/C=C/c3ccccc3)CC1)c(C)n2C(=O)c1ccc(Cl)cc1 [Analog M-1566, Indo-OC2Y-tCip] | < 4.22 | 57% | –
28 | CC1(C)CC(NC(=O)C(Cc2ccc(OCc3c(Cl)cccc3Cl)cc2)NC(=O)C23CC4CC(CC(C4)C2)C3)CC(C)(C)N1 (stereo not drawn) [Analog M-1494, Aca-OC2Y-Atmp] | 5.80 | 40% | –
29 | COc1ccc2cc(C(C)C(=O)NC(C(=O)NC3CC(C)(C)NC(C)(C)C3)C(C)(C)SCc3ccc(C)cc3)ccc2c1 (stereo not drawn) [Analog M-1506, Napr-Pen(Mbzl)-Atmp] | 5.33 | 13% | –
30 | Cc1ccc(CSC(C)(C)C(NC(=O)CCCCC2SCC3NC(=O)NC32)C(=O)NC2CC(C)(C)NC(C)(C)C2)cc1 (stereo not drawn) [Analog M-1468, Biot-Pen(Mbzl)-Atmp] | < 4.22 | 46% | –
31 | CC1(C)CC(NC(=O)[C@H](Cc2ccc(OCc3c(Cl)cccc3Cl)cc2)NC(=O)CCP(=O)(O)O)CC(C)(C)N1 [Analog M-1616, 3Php-OC2Y-Atmp] | < 4.22 | 18% | –
32 | CC1(C)CC(NC(=O)C(Cc2ccc(OCc3c(Cl)cccc3Cl)cc2)NS(=O)(=O)c2c(F)c(F)c(F)c(F)c2F)CC(C)(C)N1 (stereo not drawn) [Analog M-1092, F5BS-OC2Y-Atmp] | – | Stim. | 4.85
33 | O=C(N[C@@H]1CN2CCC1CC2)C(Cc1ccc(OCc2c(Cl)cccc2Cl)cc1)NC(=O)C(c1ccccc1)C1CCCCC1 (single isomer, unassigned) [M-1550 #1] | 5.60 | 36% | –
34 | CC1(C)CC(NC(=O)[C@H](Cc2ccc(OCc3c(Cl)cccc3Cl)cc2)NC(=O)c2c3ccccc3nc3ccccc23)CC(C)(C)N1 [Analog M-1602, Acrc-OC2Y-Atmp] | 5.80 | Stim. | –
35 | O=C(/C=C/c1c(F)c(F)c(F)c(F)c1F)N[C@@H](Cc1ccc(OCc2c(Cl)cccc2Cl)cc1)C(=O)N1CCN(c2cccc(Cl)c2Cl)CC1 [Analog M-1578, F5c-OC2Y-Dcpp] | – | Stim. | –
